Experimental data reported in publication PMC8245078, “Development of novel benzofuran-isatin conjugates as potential antiproliferative agents with apoptosis inducing mechanism in Colon cancer” (Journal of Enzyme Inhibition and Medicinal Chemistry, 2021).
Read-outs that look alike come from different tables or passages of the source.

Tests used:
Type in all cases: cell-based
[1] = system: CCRF-CEM; test: NCI single dose screening (10 µM); settings: Homo sapiens, read-out: GI% (cell growth inhibition percentage)
[2] = system: MCF7; test: NCI single dose screening (10 µM); settings: Homo sapiens
[3] = system: NCI-H522; test: NCI single dose screening (10 µM); settings: Homo sapiens
[4] = system: SNB-19; test: NCI single dose screening (10 µM); settings: Homo sapiens
[5] = system: NCI-H460; test: NCI single dose screening (10 µM); settings: Homo sapiens
[6] = system: NCI-H23; test: NCI single dose screening (10 µM); settings: Homo sapiens
[7] = system: 786-0; test: NCI single dose screening (10 µM); settings: Homo sapiens
[8] = system: RXF 393; test: NCI single dose screening (10 µM); settings: Homo sapiens
[9] = system: SK-MEL-2; test: NCI single dose screening (10 µM); settings: Homo sapiens
[10] = system: UACC-62; test: NCI single dose screening (10 µM); settings: Homo sapiens
[11] = system: OVCAR-8; test: NCI single dose screening (10 µM); settings: Homo sapiens
[12] = system: TK-10; test: NCI single dose screening (10 µM); settings: Homo sapiens
[13] = system: KM12; test: NCI single dose screening (10 µM); settings: Homo sapiens
[14] = system: PC-3; test: NCI single dose screening (10 µM); settings: Homo sapiens
[15] = system: A549/ATCC; test: NCI single dose screening (10 µM); settings: Homo sapiens
[16] = system: NCI/ADR-RES; test: NCI single dose screening (10 µM); settings: Homo sapiens, read-out: GI% (cell growth inhibition percentage)
[17] = system: HCT-116; test: NCI single dose screening (10 µM); settings: Homo sapiens
[18] = system: HCT-15; test: NCI single dose screening (10 µM); settings: Homo sapiens
[19] = system: NCI-55 cancer cell line panel; test: NCI single dose screening (10 µM), whole panel; settings: Homo sapiens, read-out: Mean inhibition, % (mean GI%)
[20] = system: HOP-62; test: NCI single dose screening (10 µM); settings: Homo sapiens
[21] = system: LOX IMVI; test: NCI single dose screening (10 µM); settings: Homo sapiens, read-out: GI% (cell growth inhibition percentage)
[22] = system: UACC-257; test: NCI single dose screening (10 µM); settings: Homo sapiens
[23] = MCF7, read-out: GI% (cell growth inhibition percentage)
[24] = NCI-H522, read-out: GI% (cell growth inhibition percentage)
[25] = SNB-19, read-out: GI% (cell growth inhibition percentage)
[26] = NCI-H460, read-out: GI% (cell growth inhibition percentage)
[27] = NCI-H23, read-out: GI% (cell growth inhibition percentage)
[28] = 786-0, read-out: GI% (cell growth inhibition percentage)
[29] = RXF 393, read-out: GI% (cell growth inhibition percentage)
[30] = SK-MEL-2, read-out: GI% (cell growth inhibition percentage)
[31] = UACC-62, read-out: GI% (cell growth inhibition percentage)
[32] = OVCAR-8, read-out: GI% (cell growth inhibition percentage)
[33] = TK-10, read-out: GI% (cell growth inhibition percentage)
[34] = KM12, read-out: GI% (cell growth inhibition percentage)
[35] = PC-3, read-out: GI% (cell growth inhibition percentage)
[36] = A549, read-out: GI% (cell growth inhibition percentage)
[37] = HCT-116, read-out: GI% (cell growth inhibition percentage)
[38] = HCT-15, read-out: GI% (cell growth inhibition percentage)
[39] = HOP-62, read-out: GI% (cell growth inhibition percentage)
[40] = UACC-257, read-out: GI% (cell growth inhibition percentage)

Question: Which inhibition at 10 µM [1] does the source give for `CCCN1C(=O)/C(=N\NC(=O)c2oc3ccccc3c2C)c2cc(Br)ccc21` [Compound 7g] here?
Answer: < 10%

Question: What about the inhibition at 10 µM [2, 23] of the same molecule?
Answer: 13.2%

Question: And the inhibition at 10 µM [3, 24]?
Answer: < 10%

Question: What about the inhibition at 10 µM [4, 25] of the same molecule?
Answer: < 10%

Question: What about the inhibition at 10 µM [5, 26] of the same molecule?
Answer: < 10%

Question: And the inhibition at 10 µM [6, 27]?
Answer: < 10%

Question: What about the inhibition at 10 µM [7, 28] of the same molecule?
Answer: < 10%

Question: And the inhibition at 10 µM [8, 29]?
Answer: < 10%

Question: What about the inhibition at 10 µM [9, 30] of the same molecule?
Answer: < 10%

Question: What about the inhibition at 10 µM [10, 31] of the same molecule?
Answer: < 10%

Question: What about the inhibition at 10 µM [11, 32] of the same molecule?
Answer: < 10%

Question: And the inhibition at 10 µM [12, 33]?
Answer: < 10%

Question: And the inhibition at 10 µM [13, 34]?
Answer: < 10%

Question: What about the inhibition at 10 µM [14, 35] of the same molecule?
Answer: < 10%

Question: And the inhibition at 10 µM [15, 36]?
Answer: < 10%

Question: What about the inhibition at 10 µM [16] of the same molecule?
Answer: < 10%

Question: And the inhibition at 10 µM [17, 37]?
Answer: < 10%

Question: What about the inhibition at 10 µM [18, 38] of the same molecule?
Answer: < 10%

Question: What about the inhibition at 10 µM [19] of the same molecule?
Answer: -0.8%

Question: What about the inhibition at 10 µM [20, 39] of the same molecule?
Answer: < 10%

Question: And the inhibition at 10 µM [21]?
Answer: < 10%

Question: And the inhibition at 10 µM [22, 40]?
Answer: < 10%

Question: Which inhibition at 10 µM [1] does the source give for `Cc1c(C(=O)N/N=C2\C(=O)N(Cc3ccccc3)c3ccccc32)oc2ccccc12` [Compound 7d] here?
Answer: < 10%

Question: And the inhibition at 10 µM [2, 23]?
Answer: 16.7%

Question: What about the inhibition at 10 µM [3, 24] of the same molecule?
Answer: 21.7%

Question: And the inhibition at 10 µM [4, 25]?
Answer: 11.6%

Question: What about the inhibition at 10 µM [5, 26] of the same molecule?
Answer: 25%

Question: What about the inhibition at 10 µM [6, 27] of the same molecule?
Answer: 13.2%

Question: And the inhibition at 10 µM [7, 28]?
Answer: < 10%

Question: What about the inhibition at 10 µM [8, 29] of the same molecule?
Answer: < 10%

Question: And the inhibition at 10 µM [9, 30]?
Answer: < 10%

Question: What about the inhibition at 10 µM [10, 31] of the same molecule?
Answer: 20.6%

Question: What about the inhibition at 10 µM [11, 32] of the same molecule?
Answer: < 10%

Question: And the inhibition at 10 µM [12, 33]?
Answer: < 10%

Question: And the inhibition at 10 µM [13, 34]?
Answer: < 10%

Question: And the inhibition at 10 µM [14, 35]?
Answer: 15.7%

Question: What about the inhibition at 10 µM [15, 36] of the same molecule?
Answer: < 10%

Question: What about the inhibition at 10 µM [16] of the same molecule?
Answer: 10.2%

Question: What about the inhibition at 10 µM [17, 37] of the same molecule?
Answer: < 10%

Question: And the inhibition at 10 µM [18, 38]?
Answer: < 10%

Question: And the inhibition at 10 µM [19]?
Answer: 6.01%

Question: What about the inhibition at 10 µM [20, 39] of the same molecule?
Answer: 20.8%

Question: And the inhibition at 10 µM [21]?
Answer: 13.8%

Question: And the inhibition at 10 µM [22, 40]?
Answer: < 10%

Question: With `Cc1c(C(=O)N/N=C2\C(=O)N(C)c3ccccc32)oc2ccccc12` [Compound 7a] as the molecule, how does the inhibition at 10 µM ([1]; Leukaemia, single dose 10^−5 M) read?
Answer: < 10%

Question: What about the inhibition at 10 µM ([2]; MCF7, Breast cancer, single dose 10^−5 M, read-out: GI% (cell growth inhibition percentage)) of the same molecule?
Answer: 28.2%

Question: What about the inhibition at 10 µM ([3]; NCI-H522, Non-small cell lung cancer, single dose 10^−5 M, read-out: GI% (cell growth inhibition percentage)) of the same molecule?
Answer: < 10%

Question: What about the inhibition at 10 µM ([4]; SNB-19, CNS cancer, single dose 10^−5 M, read-out: GI% (cell growth inhibition percentage)) of the same molecule?
Answer: < 10%

Question: And the inhibition at 10 µM ([5]; NCI-H460, Non-small cell lung cancer, single dose 10^−5 M, read-out: GI% (cell growth inhibition percentage))?
Answer: < 10%

Question: What about the inhibition at 10 µM ([6]; NCI-H23, Non-small cell lung cancer, single dose 10^−5 M, read-out: GI% (cell growth inhibition percentage)) of the same molecule?
Answer: < 10%

Question: What about the inhibition at 10 µM ([7]; 786-0, Renal cancer, single dose 10^−5 M, read-out: GI% (cell growth inhibition percentage)) of the same molecule?
Answer: < 10%

Question: And the inhibition at 10 µM ([8]; RXF 393, Renal cancer, single dose 10^−5 M, read-out: GI% (cell growth inhibition percentage))?
Answer: < 10%

Question: What about the inhibition at 10 µM ([9]; SK-MEL-2, Melanoma, single dose 10^−5 M, read-out: GI% (cell growth inhibition percentage)) of the same molecule?
Answer: < 10%

Question: And the inhibition at 10 µM ([10]; UACC-62, Melanoma, single dose 10^−5 M, read-out: GI% (cell growth inhibition percentage))?
Answer: < 10%

Question: What about the inhibition at 10 µM ([11]; OVCAR-8, Ovarian cancer, single dose 10^−5 M, read-out: GI% (cell growth inhibition percentage)) of the same molecule?
Answer: < 10%

Question: And the inhibition at 10 µM ([12]; TK-10, Renal cancer, single dose 10^−5 M, read-out: GI% (cell growth inhibition percentage))?
Answer: < 10%

Question: And the inhibition at 10 µM ([13]; KM12, Colon cancer, single dose 10^−5 M, read-out: GI% (cell growth inhibition percentage))?
Answer: < 10%

Question: And the inhibition at 10 µM ([14]; PC-3, Prostate cancer, single dose 10^−5 M, read-out: GI% (cell growth inhibition percentage))?
Answer: < 10%

Question: And the inhibition at 10 µM ([15]; A549/ATCC, Non-small cell lung cancer, single dose 10^−5 M, read-out: GI% (cell growth inhibition percentage))?
Answer: < 10%

Question: And the inhibition at 10 µM ([16]; Ovarian cancer, single dose 10^−5 M)?
Answer: < 10%

Question: What about the inhibition at 10 µM ([17]; HCT-116, Colon cancer, single dose 10^−5 M, read-out: GI% (cell growth inhibition percentage)) of the same molecule?
Answer: < 10%

Question: What about the inhibition at 10 µM ([18]; HCT-15, Colon cancer, single dose 10^−5 M, read-out: GI% (cell growth inhibition percentage)) of the same molecule?
Answer: < 10%

Question: What about the inhibition at 10 µM ([19]; mean over NCI-55 cell lines, single dose 10^−5 M) of the same molecule?
Answer: 0.09%

Question: What about the inhibition at 10 µM ([20]; HOP-62, Non-small cell lung cancer, single dose 10^−5 M, read-out: GI% (cell growth inhibition percentage)) of the same molecule?
Answer: < 10%

Question: What about the inhibition at 10 µM ([21]; Melanoma, single dose 10^−5 M) of the same molecule?
Answer: < 10%

Question: What about the inhibition at 10 µM ([22]; UACC-257, Melanoma, single dose 10^−5 M, read-out: GI% (cell growth inhibition percentage)) of the same molecule?
Answer: < 10%
